The test system of experiment [1] is H1299 cells. Details: method as in PMID 28611670, PMID 23153533, PMID 29530347. The following applies: Figure 1; read-out: H1299 cells IC50 (reported inhibitors); cited from earlier work.
The test system of another experiment is A549 cells. Nature of the experiment: Cell viability assay (MTT, 72 h), A549. It counts as cell-based. The following applies: Homo sapiens, proliferation, mean ± s.d. (n = 3). On the procedure: (§1) The H1299 cell line was obtained from Guangzhou Jenniobio Biotechnology Co., Ltd. (Guangzhou, China), PC9 and A549 cells were gifted from Deng Jiong’s lab in the School of Medicine, Shanghai Jiao Tong University, Shanghai, China). H1299, PC9 cells were cultured in RPMI-1640 medium and A549 cells were cultured in F-12K medium containing 10% fetal bovine serum (FBS), 100 units/mL of Penicillin and 100 μg/mL Streptomycin. In cell viability assays, 2000 H1299 cells, A549 cells or 1000 PC9 cells per well were seeded in 96-well plate. After attachment for 24 h, the cells were treated with indicated inhibitor for 72 h. After incubation with 0.5 mg/mL methylthiazolyldiphenyl-tetrazolium bromide (MTT) for 4 h, cell viability was measured as the OD at 570 nm.

Experiment [2] deals with H1299 cells. Nature of the experiment: Cell viability assay (MTT, 72 h), H1299. It counts as cell-based. The following applies: Homo sapiens, NCI-H1299, proliferation, mean ± s.d. (n = 3). On the procedure: as §1
A further experiment concerns PC9 cells. In words: Cell viability assay (MTT, 72 h), PC9. Format: cell-based. Particulars: Homo sapiens, PC-9, proliferation, mean ± s.d. (n = 3). On the procedure: as §1
For experiment [3], the system named is enolase-pyruvate kinase-LDH. In words: Counter screening: control linked enzyme assay with 2PG. The following applies: 0.5 μM compound, pyruvate kinase M2, LDH without PGAM1, mean ± s.d. (n = 2). Format: biochemical. On the procedure: (§2) Firstly, 1 μL inhibitor in dimethyl sulfoxide (DMSO) incubated with 49 μL 4.6 nM recombinant PGAM1, then 50 μL enzyme mix containing 3 units/mL enolase (Sigma-Aldrich, Saint Louis, MO, USA), 3 units/mL recombinant pyruvate kinase M2 (Sigma-Aldrich), 0.6 units/mL recombinant lactatdehydrogenase (LDH, Sigma-Aldrich), 100 mM Tris-HCl, 100 mM KCl, 5 mM MgCl2, 1 mM adenosine diphosphate (ADP), 0.2 mM the reduced form of nicotinamide adenine dinucleotide (NADH) and 4 mM 3PG was added. PGAM1 activity was measured as the decrease in OD at 340 nm. In addition, we performed a counter screening in which 4mM 2PG was added to 50 μL reaction mix containing the indicated inhibitor, 3 units/mL enolase (Sigma-Aldrich), 3 units/mL recombinant pyruvate kinase M2 (Sigma-Aldrich), 0.6 units/mL recombinant LDH (Sigma-Aldrich), 100 mM Tris-HCl, 100 mM KCl, 5 mM MgCl2, 1 mM ADP and 0.2 mM NADH. The other three enzyme activity was measured as the decrease in OD at 340 nm.

A further experiment addresses T1, PGAM1 (Homo sapiens, UniProt P18669).
T1 construct: His6 (C); made in house
In words: PGAM1 enzymatic assay (enolase-pyruvate kinase-LDH coupled, OD 340 nm). Format: biochemical. Particulars: optimized enzymatic assay; mean ± s.d. (n = 3). On the procedure:
as §2

Like-named read-outs stand apart in the source and are kept apart here.

These results are taken from paper PMC6429356, “Development of Anthraquinone Analogues as Phosphoglycerate Mutase 1 Inhibitors” (Molecules, 2019).

T1 sequence (P18669 whole entry): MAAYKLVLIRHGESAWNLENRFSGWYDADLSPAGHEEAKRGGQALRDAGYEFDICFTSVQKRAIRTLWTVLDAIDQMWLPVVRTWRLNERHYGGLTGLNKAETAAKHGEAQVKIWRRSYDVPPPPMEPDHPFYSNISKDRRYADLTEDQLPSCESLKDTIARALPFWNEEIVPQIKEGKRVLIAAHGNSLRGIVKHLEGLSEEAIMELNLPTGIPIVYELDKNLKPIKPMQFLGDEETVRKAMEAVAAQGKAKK

For the molecule `O=C1c2ccccc2C(=O)c2c1cc(S(=O)(=O)Nc1ccc(C(F)(F)F)cc1)c(O)c2O` [PGMI-004A], the IC50 (in general, the concentration that inhibits the measured activity by half) in the experiment with H1299 cells [1] was 25.6 µM.
As to `O=C1c2ccccc2C(=O)c2c1cc(NS(=O)(=O)c1c(Cl)cc(Cl)cc1Cl)c(O)c2O` [Compound 9l, 2,4,6-Trichloro-N-(3,4-dihydroxy-9,10-dioxo-9,10-dihydroanthracen-2-yl) benzenesulfonamide], the IC50 was greater than 50 µM in the experiment with A549 cells, 6.2 ± 1.2 µM in the experiment with H1299 cells [2], greater than 50 µM in the experiment with PC9 cells and 0.9 ± 0.26 µM at PGAM1. The “Inhibition in the Control Linked Enzyme Assay (0.5 μM)” value (“Inhibition” for short) in experiment [3] was determined as 0.2 ± 1.7%.
With `O=C1c2ccccc2C(=O)c2c1cc(NS(=O)(=O)c1ccc(OC(F)(F)F)cc1)c(O)c2O` [Compound 9c, N-(3,4-Dihydroxy-9,10-dioxo-9,10-dihydroanthracen-2-yl)-4-(trifluoromethoxy) benzenesulfonamide], the IC50 is 8 ± 0.8 µM in the experiment on A549 cells, 16.6 ± 1.8 µM in the experiment with H1299 cells [2], 10.2 ± 0.7 µM with PC9 cells and 0.9 ± 0.07 µM on PGAM1. In experiment [3], the “Inhibition” value came to 3.7 ± 1.8%.
Regarding `O=C1c2ccccc2C(=O)c2c1cc(NS(=O)(=O)c1ccc(I)cc1)c(O)c2O` [Compound 9p, 4-Iodo-N-(3,4-dihydroxy-9,10-dioxo-9,10-dihydroanthracen-2-yl) benzenesulfonamide], the IC50 in the experiment on A549 cells came out at 10.3 ± 1.4 µM; in the experiment on H1299 cells [2], 17.3 ± 3.9 µM; with PC9 cells it was 13.4 ± 1.8 µM; against PGAM1, 0.47 ± 0.07 µM. Moreover, the “Inhibition” value in experiment [3] worked out at 1.9 ± 0.1%.
For the molecule `O=C1c2ccccc2C(=O)c2c1cc(NS(=O)(=O)c1ccc(Br)cc1)c(O)c2O` [Compound 9m, 4-Bromo-N-(3,4-dihydroxy-9,10-dioxo-9,10-dihydroanthracen-2-yl) benzenesulfonamide], the results for the IC50 in the experiment with H1299 cells [2] and against PGAM1 were 28.1 ± 1.9 µM and 0.26 ± 0.02 µM, respectively. Also, the “Inhibition” value in experiment [3] is −0.1 ± 2.5%.
Regarding `O=C1c2ccccc2C(=O)c2c1cc(NS(=O)(=O)c1ccccc1OC(F)(F)F)c(O)c2O` [Compound 9d, N-(3,4-Dihydroxy-9,10-dioxo-9,10-dihydroanthracen-2-yl)-2-(trifluoromethoxy) benzenesulfonamide], the half-maximal inhibitory concentration (IC50) with A549 cells turned out to be 17 ± 4.9 µM; with H1299 cells [2], 13.9 ± 3.6 µM; in the experiment with PC9 cells, 44.2 ± 1.5 µM; against PGAM1 it was 2.2 ± 0.5 µM.
As for `O=C1c2ccccc2C(=O)c2c1cc(NS(=O)(=O)c1cccc(F)c1F)c(O)c2O` [Compound 9h, N-(3,4-Dihydroxy-9,10-dioxo-9,10-dihydroanthracen-2-yl)-2,3-difluorobenzenesulfonamide], the values for the IC50 in the experiment with H1299 cells [2] and against PGAM1 were 45.7 ± 2.7 µM and 0.89 ± 0.13 µM, respectively. Moreover, the “Inhibition” value in experiment [3] was 0.06 ± 0.4%.
In the case of `O=C(O[C@@H]1Cc2c(O)cc(O)cc2O[C@@H]1c1cc(O)c(O)c(O)c1)c1cc(O)c(O)c(O)c1` [EGCG, (−)-epigallocatechin-3-gallate], the IC50 with H1299 cells [1] is greater than 80 µM.
Turning to `O=c1c2c(O)cccc2oc2cc(NS(=O)(=O)c3ccc(N4CCCC4)cc3)c(O)c(O)c12` [Compound 12r], in the experiment with H1299 cells [1], the IC50 was 5 µM.
With `COc1c(N(C)S(=O)(=O)c2ccc(Cl)cc2)cc2c(c1O)C(=O)c1ccccc1C2=O` [Compound 14d, 4-chloro-N-(4-hydroxy-3-methoxy-9,10-dioxo-9,10-dihydroanthracen-2-yl)-N-methyl-benzenesulfonamide], the IC50 stood at 9.9 ± 0.2 µM in the experiment with A549 cells, 10.3 ± 0.8 µM in the experiment with H1299 cells [2], 49.1 ± 1.9 µM in the experiment with PC9 cells and 7.01 ± 0.92 µM on PGAM1.
